# Measured values: patent publication US20180036289A1 (Gilead Sciences, Inc., priority 2016, published 2018)
# Key:
# Experiment in all cases: Cell proliferation assay (ATPlite), drug with vs without cobicistat
# Type in all cases: cell-based
# A375 = A375 cell line; 120 hours incubation
# Procedure: (§1) All cell lines were obtained from the American Type Culture Collection (ATCC) Manassas, Va. (US). Master and working cell banks (MCB and WCB) were prepared by subculturing in ATCC-recommended media and freezing protocols (www.atcc.org). Cell line stocks for the assays were prepared from the WCB. The MCB, WCBs and assay stocks were prepared within respectively 3, 6 and 9 passages of the ATCC vial.
# (§2) Solid powders of reference compounds were weighed on a calibrated balance and dissolved in 100% DMSO. DMSO samples were stored at room temperature. At the day of the experiment, the compound stock was diluted in 3.16 fold steps in 100% DMSO to obtain a 9-point dilution series. This was further diluted 31.6 times in 20 mM sterile Hepes buffer pH 7.4. A volume of 5 μl was transferred to the cells to generate a test concentration range from 3.16×10^−5M to 3.16×10^−9 M in duplicate. The final DMSO concentration during incubation was […] in all wells.
# (§3) An assay stock was thawed and diluted in its ATCC recommended medium and dispensed in a 384-well plate, depending on the cell line used, at a concentration of 200-3200 cells per well in 45 μl medium. For each used cell line the optimal cell density is used. The margins of the plate were filled with phosphate-buffered saline. Plated cells were incubated in a humidified atmosphere of 5% CO2 at 37° C. After 24 hours, 5 μl of compound dilution was added and plates were further incubated for another 120 hours. After 120 hours, 25 μl of ATPlite 1Step™ (PerkinElmer) solution was added to each well, and subsequently shaken for 2 minutes. After 10 minutes of incubation in the dark, the luminescence was recorded on an Envision multimode reader (PerkinElmer).
# (§4) IC50s were calculated by non-linear regression using IDBS XLfit 5. The percentage growth after 120 h (%-growth) was calculated as follows: 100%×(luminescencet=120h/luminescenceuntreated,t=120h). This was fitted to the ^10log compound concentration (conc) by a 4-parameter logistics curve: %−growth=bottom+(top−bottom)/(1+10^(log IC50-conc)*hill)), where hill is the Hill-coefficient, and bottom and top the asymptotic minimum and maximum cell growth that the compound allows in that assay.
# SW948 = SW948 cell line; 120 hours incubation
# Procedure: as §1, §2, §3, §4
# SJCRH30 = SJCRH30 cell line; 120 hours incubation
# Procedure: as §1, §2, §3, §4
# SW480 = SW480 cell line; 120 hours incubation
# Procedure: as §1, §2, §3, §4
# MG-63 = MG-63 cell line; 120 hours incubation
# Procedure: as §1, §2, §3, §4
# SW48 = SW48 cell line; 120 hours incubation
# Procedure: as §1, §2, §3, §4
# 769-P = 769-P cell line; 120 hours incubation
# Procedure: as §1, §2, §3, §4
# BT-20 = BT-20 cell line; 120 hours incubation
# Procedure: as §1, §2, §3, §4
# MCF7 = MCF7 cell line; 120 hours incubation
# Procedure: as §1, §2, §3, §4
# BxPC-3 = BxPC-3 cell line; 120 hours incubation
# Procedure: as §1, §2, §3, §4
# COLO 205 = COLO 205 cell line; 120 hours incubation
# Procedure: as §1, §2, §3, §4
# Daoy = Daoy cell line; 120 hours incubation
# Procedure: as §1, §2, §3, §4
# A388 = A388 cell line; 120 hours incubation
# Procedure: as §1, §2, §3, §4
# HCT-15 = HCT-15 cell line; 120 hours incubation
# Procedure: as §1, §2, §3, §4
# VA-ES-BJ = VA-ES-BJ cell line; 120 hours incubation
# Procedure: as §1, §2, §3, §4
# DU 145 = DU 145 cell line; 120 hours incubation
# Procedure: as §1, §2, §3, §4
# J82 = J82 cell line; 120 hours incubation
# Procedure: as §1, §2, §3, §4
# FaDu = FaDu cell line; 120 hours incubation
# Procedure: as §1, §2, §3, §4
# SNU-C2B = SNU-C2B cell line; 120 hours incubation
# Procedure: as §1, §2, §3, §4
# A-172 = A-172 cell line; 120 hours incubation
# Procedure: as §1, §2, §3, §4
# DoTc2 4510 = DoTc2 4510 cell line; 120 hours incubation
# Procedure: as §1, §2, §3, §4
# SR = SR cell line; 120 hours incubation
# Procedure: as §1, §2, §3, §4
# SK-N-AS = SK-N-AS cell line; 120 hours incubation
# Procedure: as §1, §2, §3, §4
# SUP-T1 = SUP-T1 cell line; 120 hours incubation
# Procedure: as §1, §2, §3, §4
# ACHN = ACHN cell line; 120 hours incubation
# Procedure: as §1, §2, §3, §4
# MOLT-4 = MOLT-4 cell line; 120 hours incubation
# Procedure: as §1, §2, §3, §4
# T24 = T24 cell line; 120 hours incubation
# Procedure: as §1, §2, §3, §4
# 786-O = 786-O cell line; 120 hours incubation
# Procedure: as §1, §2, §3, §4
# SW620 = SW620 cell line; 120 hours incubation
# Procedure: as §1, §2, §3, §4
# HCT 116 = HCT 116 cell line; 120 hours incubation
# Procedure: as §1, §2, §3, §4
structure (smiles),measurement,setting,value
CC[C@]1(O)C[C@H]2CN(CCc3c([nH]c4ccccc34)[C@@](C(=O)OC)(c3cc4c(cc3OC)N(C=O)[C@H]3[C@@](O)(C(=O)OC)[C@H](OC(C)=O)[C@]5(CC)C=CCN6CC[C@]43[C@@H]65)C2)C1 [vincristine],Fold change in IC50 (IC50 [Drug + Cobicistat]/IC50 [Drug]),A375,4.4 fold
same,Fold change in IC50 (IC50 [Drug + Cobicistat]/IC50 [Drug]),SW948,3.5 fold
same,Fold change in IC50 (IC50 [Drug + Cobicistat]/IC50 [Drug]),SJCRH30,3.5 fold
same,Fold change in IC50 (IC50 [Drug + Cobicistat]/IC50 [Drug]),SW480,3.3 fold
same,Fold change in IC50 (IC50 [Drug + Cobicistat]/IC50 [Drug]),MG-63,3.8 fold
same,Fold change in IC50 (IC50 [Drug + Cobicistat]/IC50 [Drug]),SW48,2.7 fold
same,Fold change in IC50 (IC50 [Drug + Cobicistat]/IC50 [Drug]),769-P,3.5 fold
same,Fold change in IC50 (IC50 [Drug + Cobicistat]/IC50 [Drug]),BT-20,3.2 fold
same,Fold change in IC50 (IC50 [Drug + Cobicistat]/IC50 [Drug]),MCF7,4.8 fold
same,Fold change in IC50 (IC50 [Drug + Cobicistat]/IC50 [Drug]),BxPC-3,4.1 fold
same,Fold change in IC50 (IC50 [Drug + Cobicistat]/IC50 [Drug]),COLO 205,4.0 fold
same,Fold change in IC50 (IC50 [Drug + Cobicistat]/IC50 [Drug]),Daoy,4.6 fold
same,Fold change in IC50 (IC50 [Drug + Cobicistat]/IC50 [Drug]),A388,3.7 fold
same,Fold change in IC50 (IC50 [Drug + Cobicistat]/IC50 [Drug]),HCT-15,2.1 fold
same,Fold change in IC50 (IC50 [Drug + Cobicistat]/IC50 [Drug]),VA-ES-BJ,5.4 fold
same,Fold change in IC50 (IC50 [Drug + Cobicistat]/IC50 [Drug]),DU 145,3.8 fold
same,Fold change in IC50 (IC50 [Drug + Cobicistat]/IC50 [Drug]),J82,3.6 fold
same,Fold change in IC50 (IC50 [Drug + Cobicistat]/IC50 [Drug]),FaDu,2.8 fold
same,Fold change in IC50 (IC50 [Drug + Cobicistat]/IC50 [Drug]),SNU-C2B,2.4 fold
same,Fold change in IC50 (IC50 [Drug + Cobicistat]/IC50 [Drug]),A-172,3.3 fold
same,Fold change in IC50 (IC50 [Drug + Cobicistat]/IC50 [Drug]),DoTc2 4510,6.2 fold
same,Fold change in IC50 (IC50 [Drug + Cobicistat]/IC50 [Drug]),SR,3.6 fold
same,Fold change in IC50 (IC50 [Drug + Cobicistat]/IC50 [Drug]),SK-N-AS,4.7 fold
same,Fold change in IC50 (IC50 [Drug + Cobicistat]/IC50 [Drug]),SUP-T1,3.6 fold
same,Fold change in IC50 (IC50 [Drug + Cobicistat]/IC50 [Drug]),ACHN,3.4 fold
same,Fold change in IC50 (IC50 [Drug + Cobicistat]/IC50 [Drug]),MOLT-4,2.1 fold
same,Fold change in IC50 (IC50 [Drug + Cobicistat]/IC50 [Drug]),T24,4.4 fold
same,Fold change in IC50 (IC50 [Drug + Cobicistat]/IC50 [Drug]),786-O,2.5 fold
same,Fold change in IC50 (IC50 [Drug + Cobicistat]/IC50 [Drug]),SW620,3.0 fold
same,Fold change in IC50 (IC50 [Drug + Cobicistat]/IC50 [Drug]),HCT 116,1.4 fold
